The text below walks through data of article PMC10989899, “MomL inhibits bacterial antibiotic resistance through the starvation stringent response pathway” (mLife, 2022).

One series concerns the target T1, LasR (Pseudomonas aeruginosa, UniProt P25084).
T1 construct: recombinant, pET28a, E. coli BL21(DE3), Ni-NTA
In words: EMSA, LasR binding to relA promoter DNA. The settings on record: AHL required for DNA binding; the AHL added in EMSA is not named, 3-O-C12-HSL is that of LasR expression; 37 °C. It counts as biochemical.

Series [1] relates to RpoS (Pseudomonas aeruginosa PAO1). In words: SPR. The settings on record: binding buffer not stated, SPR: PBS, temperature not stated.

T1 sequence (P25084 whole entry): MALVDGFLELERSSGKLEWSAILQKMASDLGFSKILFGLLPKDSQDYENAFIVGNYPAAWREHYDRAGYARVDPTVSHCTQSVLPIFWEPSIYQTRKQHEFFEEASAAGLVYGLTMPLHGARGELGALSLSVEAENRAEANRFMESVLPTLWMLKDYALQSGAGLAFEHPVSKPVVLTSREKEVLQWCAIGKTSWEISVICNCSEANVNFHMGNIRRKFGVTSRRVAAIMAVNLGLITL

Regarding `CCCCCCCCCC(=O)CC(=O)N[C@H]1CCOC1=O` [3-O-C12-HSL], the “EMSA, LasR binding to relA promoter DNA” value on LasR is recorded as “This binding depended on the presence of AHLs”.
Take H2-T6SS promoter DNA (SPR): in series [1], the Kd is 87.6 nM.
